The values below come from US9550763B2, “Heterocyclic ring and carbocyclic derivative” (Shionogi & Co., Ltd., priority 2012, dated 2017).

What all share (type): cell-based
The target of test [1] is T1, human P2X3 receptor (Homo sapiens (Human), UniProt P56373). Briefly: Evaluation of human P2X3 receptor inhibitory activity (Test Example 1-1, FDSS 3000, 96-well, 50 nM ATP). Conditions: human P2X3 receptor in C6BU-1 cells; Test Example 1-1 (compounds I-001 to I-300). The gist of the method:
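C6BU-1 cells stably expressing human P2X3, loaded with 4 μM Fluo-3-AM (pH 7.5), preincubated 5 min with compound before 50 nM ATP challenge; fluorescence followed 4 min on FDSS 3000. IC50 derived from peak/baseline fluorescence ratio, no-compound as 0% and buffer-instead-of-ATP as 100% inhibition.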

The target in another test is Rat P2X3 receptor (Rattus norvegicus (Rat), UniProt P49654). Briefly: Evaluation of rat P2X3 receptor inhibitory activity in the presence of rat serum albumin (RSA) (Test Example 3-2). The following applies: rat P2X3 receptor in C6BU-1 cells. As for the experimental part:
Rat P2X3 receptor gene (GenBank accession number NM_031075) was expressed in C6BU-1 cell. The C6BU-1 cells were seeded in a 96-well microtiter plate at a concentration of 2500 cells/well and cultured in the medium (7.0% fetal bovine serum, 7.0% horse serum, and 1% antibiotic and antifungal in DMEM) for one day at 37° C. under 5% carbon dioxide atmosphere. The plasmid was transfected into the cells using transfection reagent FuGENEG (Roche). The transfected cells were cultured in the medium for one day at 37° C. under 5% carbon dioxide atmosphere. The medium was replaced with 4 μM Fluo-3-AM solution (pH7.5) containing 20 mM HEPES, […], 5.27 mM KCl, 0.9 mM MgCl2, 1.26 mM CaCl2, 5.6 mM D-glucose, 2.5 mM probenecid, 1% BSA, and 0.08% Pluronic F-127, and incubated at 37° C. under 5% dioxide carbon atmosphere for one hour. The plate was washed with washing buffer (20 mM HEPES, 137 mM NaCl, 5.27 mM KCl, 0.9 mM MgCl2, 1.26 mM CaCl2, 5.6 mM D-glucose, 2.5 mM probenecid, pH7.5), and each well was added with 40 μL of this buffer. The plate was placed in High-Throughput Screening System FDSS 3000 (Hamamatsu Photonics K.K.). Measurement of fluorescence intensity by FDSS 3000 was started, and 40 μL of DMSO solutions containing 1% RSA (final concentrations) and different concentrations of the test compound as prepared by dilution with dilution buffer (20 mM HEPES, 137 mM NaCl, 5.27 mM KCl, 0.9 mM MgCl2, 1.26 mM CaCl2, 5.6 mM D-glucose, 2.5 mM probenecid, 0.1% Pluronic F-127, pH7.5) were dispensed to each well through the built-in automatic dispenser. Five minutes after, 50 nM ATP solution (50 μL) prepared by dilution with the dilution buffer was dispensed through the built-in automatic dispenser, and the measurement of fluorescence intensity was continued for 4 min. For each well, the specific maximum fluorescence intensity was calculated as the ratio of the maximum fluorescence intensity after addition of the ATP solution to the fluorescence intensity at the starting of the measurement. The 50% inhibitory concentration (IC50) was calculated under the assumption that the specific maximum fluorescence intensity without test compound is 0% inhibition and that the specific maximum fluorescence intensity when the dilution buffer was added in place of ATP solution is 100% inhibition, to evaluate the inhibitory activity of the test compound. FDSS software (Hamamatsu Photonics K.K.) was used for calculation of the specific maximum fluorescence intensity. IC50 was calculated using Microsoft Excel (Microsoft Corporation) and XLfit (idbs Ltd.).

In test [2] the target is T1, human P2X3 receptor. In words: Evaluation of human P2X3 receptor inhibitory activity (Test Example 1-2, FLIPR 384, 384-well, 150 nM ATP). Conditions: human P2X3 receptor in C6BU-1 cells; Test Example 1-2 (compounds I-301 to I-483); read-out: P2X3 IC50. The gist of the method:
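Human P2X3 stably expressed in C6BU-1 cells, Fluo-3-AM loaded, read on FLIPR at pH 7.5 HEPES buffer. Compound added 5 min before 150 nM ATP; peak/baseline fluorescence over 4 min gave inhibition (buffer instead of ATP = 100%), from which IC50 was derived.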

T1 sequence (P56373 whole entry): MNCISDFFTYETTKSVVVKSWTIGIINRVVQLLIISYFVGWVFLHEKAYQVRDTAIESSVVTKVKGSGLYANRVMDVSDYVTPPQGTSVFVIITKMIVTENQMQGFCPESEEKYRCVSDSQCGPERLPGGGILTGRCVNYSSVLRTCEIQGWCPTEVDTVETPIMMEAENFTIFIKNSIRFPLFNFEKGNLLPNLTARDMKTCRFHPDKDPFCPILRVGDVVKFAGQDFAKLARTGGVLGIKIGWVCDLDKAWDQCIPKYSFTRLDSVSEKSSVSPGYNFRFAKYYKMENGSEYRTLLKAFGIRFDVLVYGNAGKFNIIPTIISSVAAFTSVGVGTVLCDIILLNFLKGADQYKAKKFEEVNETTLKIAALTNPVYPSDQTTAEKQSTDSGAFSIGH
Chain of Rat P2X3 receptor (P49654 whole entry): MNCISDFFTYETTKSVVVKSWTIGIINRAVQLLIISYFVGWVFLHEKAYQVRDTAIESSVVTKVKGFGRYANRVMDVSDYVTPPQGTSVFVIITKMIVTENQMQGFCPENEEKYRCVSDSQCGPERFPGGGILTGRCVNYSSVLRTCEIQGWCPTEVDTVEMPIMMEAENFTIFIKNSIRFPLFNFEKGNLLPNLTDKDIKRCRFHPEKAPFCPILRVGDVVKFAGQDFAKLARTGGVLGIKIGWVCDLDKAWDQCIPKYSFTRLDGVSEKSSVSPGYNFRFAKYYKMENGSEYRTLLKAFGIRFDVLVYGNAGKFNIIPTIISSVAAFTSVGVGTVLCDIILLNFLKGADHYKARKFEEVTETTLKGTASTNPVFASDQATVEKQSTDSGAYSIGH

In the case of `O=c1c(NC(=O)[C@H]2C[C@H](O)C2)c[nH]/c(=N\c2ccc(Oc3ccc(F)cn3)cc2)n1Cc1ccc(Cl)cc1` [Compound I-215], the IC50 amounted to 4 nM on human P2X3 receptor [1] and 5 nM at Rat P2X3 receptor.

Regarding `O=C(O)c1cc(Oc2ccc(/N=c3\[nH]cc(Nc4ccon4)c(=O)n3Cc3ccc(Cl)cc3)cc2)ccn1` [Compound I-354], the IC50 was 14 nM on Rat P2X3 receptor and 7 nM at human P2X3 receptor [2].

Regarding `N#Cc1cnc(Oc2ccc(Nc3nc(=O)c(C(=O)NC4CCOCC4)cn3Cc3ccc(Cl)cc3)cc2)cn1` [Compound I-230], the IC50 at human P2X3 receptor [1] was found to be 9 nM; at Rat P2X3 receptor it was 10 nM.

For `Cc1cc(Oc2ccc(/N=c3\[nH]cc(NC(=O)C4CCOCC4)c(=O)n3Cc3ccc(Cl)cc3)cc2C)no1` [Compound I-304], the IC50 on Rat P2X3 receptor and on human P2X3 receptor [2] was 12 nM in each case.

Take `Cc1ccc(Oc2ccc(Nc3nc(=O)c(C(=O)NC4CCOCC4)cn3Cc3ccc(Cl)cc3)cc2)nn1` [Compound I-159]: the IC50 against human P2X3 receptor [1] came to 7 nM; at Rat P2X3 receptor it was 23 nM.

Consider `Cc1noc(-c2c[nH]/c(=N\c3ccc(Oc4cccc(C(=O)O)n4)cc3)n(Cc3ccc(Cl)cc3)c2=O)n1` [Compound I-313], for which the IC50 at Rat P2X3 receptor worked out at 24 nM; on human P2X3 receptor [2], 5 nM.

For `Cc1nc(Nc2cc(=O)n([C@@H](C)[C@@H](C)C(=O)O)c(=O)n2Cc2ccc(Cl)cc2)ccc1Oc1ccc(F)nc1` [Compound I-339], the IC50 on Rat P2X3 receptor turned out to be 12 nM; at human P2X3 receptor [2], 9 nM.

`Cc1cc(/N=c2\[nH]cc(NC(=O)C3CCOCC3)c(=O)n2Cc2ccc(Cl)cc2)ccc1Oc1ncccc1F` [Compound I-162]: the IC50 against human P2X3 receptor [1] turned out to be 3 nM; at Rat P2X3 receptor, 13 nM.

Consider `CCCn1c(=O)cc(Nc2ccc(Oc3cccc(C(=O)O)n3)cc2)n(Cc2ccc(Cl)cc2)c1=O` [Compound I-165], for which the values for the IC50 against human P2X3 receptor [1] and at Rat P2X3 receptor were 3 nM and 17 nM, respectively.

Regarding `Cc1ccc(Oc2ccc(/N=c3\[nH]cc(NC(=O)[C@H]4C[C@H](O)C4)c(=O)n3Cc3ccc(Cl)cc3)cc2)nn1` [Compound I-308], the IC50 on Rat P2X3 receptor and on human P2X3 receptor [2] was 5 nM in each case.

Consider `CCC(=O)Nc1c[nH]/c(=N\c2ccc(Oc3ccc(C(N)=O)nn3)cc2)n(Cc2ccc(Cl)cc2)c1=O` [Compound I-309], for which the 50% inhibitory concentration (IC50) at Rat P2X3 receptor is 22 nM; at human P2X3 receptor [2], 9 nM.

For `COc1cn(Cc2ccc(Cl)cc2)c(Nc2ccc(Oc3cccc(F)n3)cc2)nc1=O` [Compound I-351, 1-(4-chlorobenzyl)-2-[4-(6-fluoro-2-pyridyloxy)phenylamino]-5-methoxypyrimidin-4(1H)-one], the IC50 on human P2X3 receptor [2] worked out at 98 nM.

`NNC(=O)c1c[nH]/c(=N\c2ccc(Oc3ccon3)cc2)n(Cc2ccc(Cl)cc2)c1=O` [Compound I-423]: the 50% inhibitory concentration (IC50) on human P2X3 receptor [2] was determined as 81 nM.

As to `COCCn1c(=O)cc(Nc2ccc(Oc3cccc(C#N)n3)c(C)n2)n(Cc2ccc(Cl)cc2)c1=O` [Compound I-322], on human P2X3 receptor [2], the IC50 worked out at 5 nM.

As for `Cc1noc(-c2c[nH]/c(=N\c3ccc(Oc4ccon4)cc3)n(Cc3ccc(Cl)cc3)c2=O)n1` [Compound I-345], at human P2X3 receptor [2], the IC50 was found to be 38 nM.

Take `N#CCNC(=O)c1c[nH]/c(=N\c2ccc(Oc3ccc(F)cn3)cc2)n(Cc2ccc(Cl)cc2)c1=O` [Compound I-426]: the concentration for half-maximal inhibition (IC50) at human P2X3 receptor [2] came to 15 nM.

Take `CCn1c(=O)[nH]c(Nc2ccc(Oc3cccc(C(=O)O)n3)cc2)c(Cc2ccc(Cl)cc2)c1=O` [Compound I-457]: the IC50 at human P2X3 receptor [2] was 9 nM.

As to `Cc1nc(Nc2cc(=O)n(C[C@H](C)C(=O)O)c(=O)n2Cc2ccc(Cl)cc2)ccc1Oc1ccc(F)cn1` [Compound I-363], the half-inhibitory concentration (IC50) at human P2X3 receptor [2] was found to be 8 nM.

For the compound `Cc1nc(Nc2cc(=O)n(C(C)C)c(=O)n2Cc2ccc(Cl)cc2)ccc1Oc1cccc(C(=O)O)n1` [Compound I-341], on human P2X3 receptor [2], the IC50 came to 10 nM.

One may read the IC50 as the concentration that inhibits the measured activity by half.
